We go through twelve molecules from patent US20240270821A1, “GIP/GLP1/GCG TRI-RECEPTOR AGONISTS AND USES THEREOF” (priority 2023, published 2024).

The target in series [1] is T1, hGLP-1R (Homo sapiens, UniProt P43220). Description: Functional cAMP activity in the presence of 1% HSA. It is filed as cell-based. The following applies: read-out: cAMP Rel EC50, hGLP-1R.
The target of series [2] is T2, hGIPR (Homo sapiens, UniProt P48546).
T2 sequence (P48546 22-466): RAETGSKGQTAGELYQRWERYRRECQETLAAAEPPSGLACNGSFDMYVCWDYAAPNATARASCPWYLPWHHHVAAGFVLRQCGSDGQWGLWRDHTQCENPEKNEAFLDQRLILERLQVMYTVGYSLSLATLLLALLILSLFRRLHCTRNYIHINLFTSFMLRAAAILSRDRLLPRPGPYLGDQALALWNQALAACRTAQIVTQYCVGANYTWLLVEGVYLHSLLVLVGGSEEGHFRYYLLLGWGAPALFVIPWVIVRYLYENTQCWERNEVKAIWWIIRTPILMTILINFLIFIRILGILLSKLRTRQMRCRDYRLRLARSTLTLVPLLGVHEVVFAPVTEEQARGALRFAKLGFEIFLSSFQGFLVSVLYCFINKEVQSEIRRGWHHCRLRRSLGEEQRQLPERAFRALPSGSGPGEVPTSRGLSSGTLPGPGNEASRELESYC
Description: Functional cAMP activation in the presence of 0.1% casein (no HSA). The following applies: read-out: Relative cAMP EC50, hGIPR. In kind it is cell-based.

The target of series [3] is T1, hGLP-1R. The description is as above. In kind it is cell-based. The following applies: read-out: Relative cAMP EC50, hGLP-1R.
Series [4] concerns the target T2, hGIPR. Description: Functional cAMP activity in the presence of 1% HSA. The settings on record: read-out: cAMP Rel EC50, hGIPR. It is filed as cell-based.
The target of a further series is human GcgR (Homo sapiens, UniProt P47871). Description: Functional cAMP activity in the presence of 1% HSA. It is filed as cell-based. The settings on record: read-out: cAMP Rel EC50, hGcgR.
Chain of human GcgR (P47871 26-477): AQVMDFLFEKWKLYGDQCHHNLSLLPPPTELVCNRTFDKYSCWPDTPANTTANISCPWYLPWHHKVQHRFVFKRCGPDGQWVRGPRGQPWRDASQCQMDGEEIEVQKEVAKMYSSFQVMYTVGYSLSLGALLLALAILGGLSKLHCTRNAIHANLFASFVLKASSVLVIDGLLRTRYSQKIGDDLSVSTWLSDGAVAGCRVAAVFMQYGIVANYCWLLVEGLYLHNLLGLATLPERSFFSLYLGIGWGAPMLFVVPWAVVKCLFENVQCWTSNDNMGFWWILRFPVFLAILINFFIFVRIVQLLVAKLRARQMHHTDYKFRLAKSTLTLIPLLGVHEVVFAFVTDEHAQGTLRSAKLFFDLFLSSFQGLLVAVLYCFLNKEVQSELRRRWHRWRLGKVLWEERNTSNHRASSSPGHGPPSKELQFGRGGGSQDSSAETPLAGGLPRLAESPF
A further series concerns the target hGcgR (Homo sapiens, UniProt P47871). Description: Functional cAMP activation in the presence of 0.1% casein (no HSA). In kind it is cell-based. The settings on record: read-out: Relative cAMP EC50, hGcgR.
Series [5] relates to Intestinal organoid from Göttingen minipig jejunum tissue, 2D monolayer. In words: Cell based in vitro permeability (Papp) assay. It is filed as in vitro ADME. Here is the method: Intestinal organoid from Göttingen minipig jejunum tissue and its 2D monolayer are generated using the protocol previously described ([…]-Thiele, […].; Wells, J. M., Optimized procedures for generating an enhanced, near physiological 2D culture system from porcine intestinal organoids. […] After 7 days of culture, organoids are dissociated into single cells by TrypLE (GIbco), and the single cell suspension is added in 24-well transparent transwell inserts (0.3 cm^2, Falcon, BD). […] Samples from the basal compartment are collected at 20 min in the presence of C10. Peptide concentrations in the apical and basal compartments are measured by LC/MS, and the apparent permeability coefficient (Papp) is calculated as previously described (Twarog, C.; Liu, K.; O'Brien, P. J.; Dawson, […] head-to-head Caco-2 assay comparison of the mechanisms of action of the intestinal permeation enhancers: SNAC and sodium caprate (C10).

Setting [6] is: in the presence of 0.1% casein (no HSA), geometric mean.

Like-named read-outs stand apart in the source and are kept apart here. Starred links: 1 amine or outer side, 2 acyl side, 3 side chain; linkers in the order of their positions; H or OH if unused. Non-standard residues stand in square brackets, D forms with d. Groups on a side chain read outwards from the residue. No end group written: not given here. *: point of attachment. C18 diacid = O=C(O)CCCCCCCCCCCCCCCCC(=O)*; αMePhe(2-F) = C[C@](N)(Cc1ccccc1F)C(=O)O; γGlu = O=C(O)[C@H](CCC(=O)[*:2])N[*:1]; αMe4Pal = C[C@](N)(Cc1ccncc1)C(=O)O; αMeY = C[C@](N)(Cc1ccc(O)cc1)C(=O)O; 4Pal = N[C@@H](Cc1ccncc1)C(=O)O; αMeL = CC(C)C[C@](C)(N)C(=O)O; αMeS = C[C@](N)(CO)C(=O)O; Orn = NCCC[C@H](N)C(=O)O; AEEA = NCCOCCOCC(=O)O; Aib = CC(C)(N)C(=O)O
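Wherever Relative cAMP EC50, hGIPR is given: intracellular cAMP rise after 30 min at 37 °C read by HTRF against a standard curve, scaled between buffer alone (0%) and top control ligand concentration (100%), four-parameter fit.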
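Wherever Relative cAMP EC50, hGLP-1R is given: intracellular cAMP rise after 30 min at 37 °C read by HTRF, normalized between buffer only (0%) and maximal control ligand (100%), four-parameter variable-slope fit.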
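Wherever Relative cAMP EC50, hGcgR is given: intracellular cAMP rise after 30 min at 37 °C, read by HTRF against a cAMP standard curve, scaled from buffer only (0%) to maximal control ligand response (100%).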

T1 sequence (P43220 24-463): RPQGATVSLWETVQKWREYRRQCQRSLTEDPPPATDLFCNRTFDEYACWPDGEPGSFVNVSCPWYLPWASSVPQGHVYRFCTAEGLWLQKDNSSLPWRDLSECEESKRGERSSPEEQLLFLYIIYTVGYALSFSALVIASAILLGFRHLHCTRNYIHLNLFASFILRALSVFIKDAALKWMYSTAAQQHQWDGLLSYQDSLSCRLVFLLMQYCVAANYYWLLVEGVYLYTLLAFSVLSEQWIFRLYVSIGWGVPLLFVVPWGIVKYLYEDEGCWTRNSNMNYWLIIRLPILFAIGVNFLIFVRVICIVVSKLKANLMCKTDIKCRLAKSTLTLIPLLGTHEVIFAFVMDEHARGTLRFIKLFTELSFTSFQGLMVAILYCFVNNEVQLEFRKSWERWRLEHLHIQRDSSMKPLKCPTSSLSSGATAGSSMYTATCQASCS
Chain of hGcgR (P47871 26-477): as the sequence (P47871 26-477) above

Turning to “H-Y[Aib]QGTFTSDFS[Orn][αMeL]LDKK([γGlu-γGlu-C18 diacid])AQ[Aib]AFIEYLLEGGPSSGAPPPGGS-NH2 [Example 198]”, the EC50 at hGLP-1R [1] turned out to be 761 nM; on hGIPR [2] (setting [6]), 0.182 nM; on hGLP-1R [3] (setting [6]), 4.36 nM; at hGIPR [4], 38.8 nM; on human GcgR it was 1300 nM; at hGcgR (setting [6]), 6.85 nM. Moreover, the “Relative Papp (Compared to internal standard)” value (from here on “Relative Papp”) in series [5] is 0.12.

Turning to “H-Y[Aib]QGTFTSDFS[Orn][αMeL]LDKK([AEEA-γGlu-C18 diacid])AQ[Aib]AFIEYLLEGGPSSGAPPPEGS-NH2 [Example 130]”, the EC50 on hGLP-1R [1] was 865 nM; at hGIPR [2] (setting [6]) it was 0.411 nM; at hGLP-1R [3] (setting [6]) it was 4.29 nM; on hGIPR [4], 60.5 nM; on human GcgR, 1080 nM; on hGcgR (setting [6]), 3.74 nM. The “Relative Papp” value in series [5] is reported as 0.06.

On to “H-Y[Aib]QGT[αMePhe(2-F)]TSD[4Pal]SI[αMeL]LD[Orn]K([AEEA-γGlu-C18 diacid])AQ[αMe4Pal][Orn]FI[dE][αMeY]LIEGGPSSGEPPPEGE-NH2 [Example 675]”, for which the half-maximal effective concentration (EC50) on hGLP-1R [1] was 25 nM; at hGIPR [2] it was 0.0111 nM; on hGLP-1R [3] it was 0.254 nM; on hGIPR [4], 1.16 nM; at human GcgR, 207 nM; at hGcgR it was 2.15 nM. Further, in series [5], the “Relative Papp” value stood at 0.36.

For the molecule “H-Y[Aib]QGT[αMePhe(2-F)]TSD[4Pal]SILLDKK([γGlu-γGlu-C18 diacid])AQ[Aib]AFIE[αMe4Pal]LEEGGPSSGAPPPSGTE-NH2 [Example 552]”, the 50% effective concentration (EC50) on hGLP-1R [1] amounted to 86.2 nM; on hGIPR [2], 0.0177 nM; at hGLP-1R [3], 0.804 nM; on hGIPR [4] it was 1.67 nM; on human GcgR, 289 nM; on hGcgR it was 2.53 nM. The “Relative Papp” value in series [5] was 0.53.

As for “H-Y[Aib]QGTFTSDFS[Orn][αMeL]LDKK([AEEA-AEEA-γGlu-C18 diacid])AQ[Aib]AFIEYLLE[Aib]GHSSGAPPPSGT-NH2 [Example 182]”, the EC50 at hGLP-1R [1] came out at 398 nM; on hGIPR [2] (setting [6]) it was 0.0781 nM; at hGLP-1R [3] (setting [6]) it was 4.8 nM; on hGIPR [4], 9.95 nM; at human GcgR it was 1480 nM; on hGcgR (setting [6]), 5.33 nM. The “Relative Papp” value in series [5] amounted to 0.12.

With “H-Y[Aib]QGT[αMePhe(2-F)]TSD[4Pal][αMeS]I[αMeL]LD[Orn]K([γGlu-γGlu-C18 diacid])AQ[αMe4Pal]EFI[dE][αMeY]LVEGGPSSGEPPPSGS-NH2 [Example 737]”, the half-maximal effective concentration (EC50) at hGLP-1R [1] came to 22.3 nM; on hGIPR [2], 0.00804 nM; at hGLP-1R [3], 0.285 nM; on hGIPR [4], 0.498 nM; on human GcgR, 122 nM; at hGcgR it was 1.34 nM. The “Relative Papp” value in series [5] was 0.69.

As to “H-Y[Aib]QGT[αMePhe(2-F)]TSD[4Pal][αMeS]I[αMeL]LD[Orn]K([γGlu-γGlu-C18 diacid])AQ[αMe4Pal]EFI[dE][αMeY]LIEGGPSSGAPPPEGGGE-NH2 [Example 761]”, the EC50 came out at 26.1 nM on hGLP-1R [1]; 0.00686 nM on hGIPR [2]; 0.226 nM at hGLP-1R [3]; 0.635 nM at hGIPR [4]; 162 nM on human GcgR; 1.5 nM at hGcgR. Moreover, the “Relative Papp” value in series [5] turned out to be 0.53.

For the molecule “H-Y[Aib]QGTFTSD[4Pal]S[Orn][αMeL]LDKK([AEEA-γGlu-C18 diacid])AQ[αMe4Pal]AFIEYLIE[Aib]GPSSGAPPPSGS-NH2 [Example 808]”, the 50% effective concentration (EC50) at hGLP-1R [1] was 406 nM; at hGIPR [2] (setting [6]) it was 0.187 nM; on hGLP-1R [3] (setting [6]) it was 3.58 nM; on hGIPR [4], 27.3 nM; on human GcgR, 286 nM; at hGcgR (setting [6]) it was 1.65 nM. In addition, the “Relative Papp” value in series [5] stood at 0.29.

On to “Y[Aib]QGTFTSDFS[Orn][αMeL]LDKK([AEEA-γGlu-C18 diacid])AQ[Aib]AFIEYLLE[dA]GPSSGEPPPSGE-NH2 [Example 135]”, for which the EC50 was 472 nM on hGLP-1R [1]; 0.246 nM on hGIPR [2] (setting [6]); 3.3 nM on hGLP-1R [3] (setting [6]); 23.4 nM at hGIPR [4]; 557 nM on human GcgR; 2.53 nM on hGcgR (setting [6]). The “Relative Papp” value in series [5] was determined as 0.04.

In the case of `CC[C@H](C)[C@H](NC(=O)[C@H](Cc1ccccc1)NC(=O)[C@H](CCCN)NC(=O)C(C)(C)NC(=O)[C@H](CCC(N)=O)NC(=O)[C@H](C)NC(=O)[C@H](CCCCNC(=O)[C@@H](CCC(=O)O)NC(=O)CC[C@H](NC(=O)CCCCCCCCCCCCCCCCC(=O)O)C(=O)O)NC(=O)[C@H](CCCN)NC(=O)[C@H](CC(=O)O)NC(=O)[C@H](CC(C)C)NC(=O)[C@](C)(CC(C)C)NC(=O)[C@@H](NC(=O)[C@](C)(CO)NC(=O)[C@H](Cc1ccncc1)NC(=O)[C@H](CC(=O)O)NC(=O)[C@H](CO)NC(=O)[C@@H](NC(=O)[C@](C)(Cc1ccccc1F)NC(=O)[C@@H](NC(=O)CNC(=O)[C@H](CCC(N)=O)NC(=O)C(C)(C)NC(=O)[C@@H](N)Cc1ccc(O)cc1)[C@@H](C)O)[C@@H](C)O)[C@@H](C)CC)C(=O)N[C@H](CCC(=O)O)C(=O)N[C@@](C)(Cc1ccc(O)cc1)C(=O)N[C@@H](CC(C)C)C(=O)N[C@@H](CCC(N)=O)C(=O)N[C@@H](CCC(=O)O)C(=O)NCC(=O)NCC(=O)N1CCC[C@H]1C(=O)N[C@@H](CO)C(=O)N[C@@H](CO)C(=O)NCC(=O)N[C@@H](CCC(=O)O)C(=O)N1CCC[C@H]1C(=O)N1CCC[C@H]1C(=O)N1CCC[C@H]1C(=O)N[C@@H](CCC(=O)O)C(=O)NCC(=O)N[C@H](C(=O)N[C@@H](CCC(=O)O)C(=O)N[C@@H](CCC(=O)O)C(N)=O)[C@@H](C)O` [Example 595], the concentration giving a half-maximal response (EC50) on hGLP-1R [1] was determined as 30.4 nM; at hGIPR [2], 0.0338 nM; on hGLP-1R [3] it was 0.53 nM; on hGIPR [4], 1.73 nM; on human GcgR, 353 nM; on hGcgR, 5.06 nM. In series [5], the “Relative Papp” value worked out at 0.55.

For “H-Y[Aib]QGT[αMePhe(2-F)]TSD[4Pal][αMeS]I[αMeL]LD[Orn]K([γGlu-γGlu-C18 diacid])AQ[αMe4Pal]EFI[dE][αMeY]LIEGGPSSGAPPPSGGGE-NH2 [Example 743]”, the concentration for a half-maximal effect (EC50) on hGLP-1R [1] came to 21.2 nM; on hGIPR [2] it was 0.00694 nM; at hGLP-1R [3], 0.259 nM; at hGIPR [4], 0.432 nM; at human GcgR, 133 nM; on hGcgR it was 1.49 nM. For the same molecule, in series [5], the “Relative Papp” value was 0.56.

For “H-Y[Aib]QGT[αMePhe(2-F)]TSD[4Pal][αMeS]I[αMeL]LD[Orn]K([AEEA-γGlu-C18 diacid])AQ[αMe4Pal]EFI[dE][αMeY]LIEGGPSSGEPPPSGS-NH2 [Example 710]”, the 50% effective concentration (EC50) on hGLP-1R [1] came to 28.7 nM; on hGIPR [2], 0.00578 nM; on hGLP-1R [3] it was 0.274 nM; at hGIPR [4], 0.589 nM; on human GcgR, 126 nM; at hGcgR, 1.52 nM. Besides, the “Relative Papp” value in series [5] is 0.35.
